# Measured values: article PMC3193285 (ACS Medicinal Chemistry Letters, 2011)
# Like-named read-outs stand apart in the source and are kept apart here.
# Assays:
# TNF-α = experiment: TNF-α-induced NF-κB activation luciferase reporter counterscreen; type: cell-based; details: Homo sapiens
# [1] = system: NCI 60 human tumor cell line
# [2] = molecular target: T1, CFLT3 (Fms-like tyrosine kinase) (Homo sapiens, UniProt P36888); experiment: Ambit KinomeScreen, FLT3; details: 10 μM
# T1 sequence (P36888 27-993): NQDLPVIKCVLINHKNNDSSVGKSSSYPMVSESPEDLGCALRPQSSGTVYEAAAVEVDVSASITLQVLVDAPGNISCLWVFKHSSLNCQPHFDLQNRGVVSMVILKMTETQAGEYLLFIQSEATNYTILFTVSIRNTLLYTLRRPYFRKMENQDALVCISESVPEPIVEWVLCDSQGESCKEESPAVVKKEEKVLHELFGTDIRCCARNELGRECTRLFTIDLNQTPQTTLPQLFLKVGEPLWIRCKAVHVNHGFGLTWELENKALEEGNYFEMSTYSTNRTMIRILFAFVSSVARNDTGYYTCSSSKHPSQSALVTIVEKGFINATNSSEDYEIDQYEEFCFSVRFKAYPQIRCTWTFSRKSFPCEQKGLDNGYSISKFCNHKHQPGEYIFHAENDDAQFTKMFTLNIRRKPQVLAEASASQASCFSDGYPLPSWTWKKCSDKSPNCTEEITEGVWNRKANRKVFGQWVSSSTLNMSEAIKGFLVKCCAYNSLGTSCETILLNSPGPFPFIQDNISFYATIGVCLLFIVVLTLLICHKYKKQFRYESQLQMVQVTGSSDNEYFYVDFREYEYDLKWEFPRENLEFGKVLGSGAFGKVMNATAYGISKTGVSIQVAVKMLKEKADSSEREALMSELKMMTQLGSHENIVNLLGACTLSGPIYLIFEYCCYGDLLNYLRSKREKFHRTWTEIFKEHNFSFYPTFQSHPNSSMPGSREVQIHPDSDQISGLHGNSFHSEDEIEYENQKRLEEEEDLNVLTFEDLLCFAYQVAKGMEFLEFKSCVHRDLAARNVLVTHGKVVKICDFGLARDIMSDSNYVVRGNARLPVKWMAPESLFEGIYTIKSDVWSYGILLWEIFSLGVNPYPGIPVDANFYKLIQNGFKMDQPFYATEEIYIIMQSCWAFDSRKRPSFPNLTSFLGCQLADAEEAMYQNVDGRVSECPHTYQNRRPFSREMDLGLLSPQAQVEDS
# [3] = Plasma protein binding, mouse plasma; type: in vitro ADME
# [4] = Metabolic stability in human hepatic microsomes; type: in vitro ADME; details: percent remaining at 1 h
# [5] = Plasma stability, mouse plasma; type: in vitro ADME; details: Plasma/PBS, compound at 1 μM, 3 h
# [6] = Plasma protein binding, human plasma; type: in vitro ADME
# [7] = system: NF-κB activation via doxorubicin-induced pathway; experiment: NF-κB selectivity assay, HEK 293-T cells, doxorubicin induction; type: cell-based, human
# [8] = Metabolic stability in mouse hepatic microsomes; type: in vitro ADME; details: percent remaining at 1 h
# 443 kinases = experiment: Ambit KinomeScreen panel; details: 10 μM
# [9] = molecular target: RIOK2 (right open reading frame) (Homo sapiens, UniProt Q9BVS4); experiment: Ambit KinomeScreen, RIOK2; details: 10 μM
# RIOK2 (right open reading frame), sequence (Q9BVS4 whole entry, species assumed): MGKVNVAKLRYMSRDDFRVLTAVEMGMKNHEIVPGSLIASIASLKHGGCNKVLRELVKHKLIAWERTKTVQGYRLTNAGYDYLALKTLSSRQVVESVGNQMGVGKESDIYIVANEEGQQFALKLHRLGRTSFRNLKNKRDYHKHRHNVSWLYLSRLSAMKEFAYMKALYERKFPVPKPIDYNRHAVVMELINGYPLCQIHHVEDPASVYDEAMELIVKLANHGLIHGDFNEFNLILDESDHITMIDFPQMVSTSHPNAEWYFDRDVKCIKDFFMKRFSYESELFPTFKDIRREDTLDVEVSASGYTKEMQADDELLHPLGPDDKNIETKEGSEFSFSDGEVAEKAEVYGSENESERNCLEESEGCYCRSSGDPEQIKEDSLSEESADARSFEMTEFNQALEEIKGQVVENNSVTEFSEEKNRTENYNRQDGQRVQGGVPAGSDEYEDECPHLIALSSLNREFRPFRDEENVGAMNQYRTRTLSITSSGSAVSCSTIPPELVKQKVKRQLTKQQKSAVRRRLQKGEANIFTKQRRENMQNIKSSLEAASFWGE
# [10] = system: NF-κB activation via PMA/ionomycin; experiment: NF-κB selectivity assay, HEK 293-T cells, PMA/ionomycin induction; type: cell-based, human
# [11] = Aqueous kinetic solubility; type: physicochemical; details: aqueous solution, pH 6.2
# [12] = Plasma stability, human plasma; type: in vitro ADME; details: Plasma/PBS, compound at 1 μM, 3 h
# [13] = read-out: TNF-α (NOD1-dependent) IC50
Compound,IC50 (TNF-α; read-out: TNF-α IC50) [µM],IC50 (TNF-α; [13]) [µM],further results
CC(=O)N1CCc2cc(S(=O)(=O)N3CCN(c4ccc(Cl)cc4)CC3)ccc21 [27a],> 20,,
Cc1ccc(S(=O)(=O)n2c(S)nc3ccc(C)cc32)cc1 [8c],,> 20,
CC(=O)c1ccc(N2CCN(S(=O)(=O)c3ccc4c(c3)CCN4C(=O)C3CC3)CC2)cc1 [20a],> 20,,
Nc1nc2ccccc2n1S(=O)(=O)c1ccccc1 [4c],,> 20,
Nc1nc2ccccc2n1Cc1ccc(Cl)cc1 [10c],,> 20,
CC(=O)c1ccc(N2CCN(S(=O)(=O)c3ccc4c(c3)CCN4C(C)=O)CC2)cc1 [25a],> 20,,
CCC(=O)N1CCc2cc(S(=O)(=O)N3CCN(c4ccc([N+](=O)[O-])cc4)CC3)ccc21 [23a],> 20,,
CC(=O)N1CCc2cc(S(=O)(=O)N3CCN(c4ccc([N+](=O)[O-])cc4)CC3)ccc21 [26a],> 20,,
N#Cc1ccc(N2CCN(S(=O)(=O)c3ccc4c(c3)CCN4C(=O)C3CC3)CC2)cc1 [19a],> 20,,
Nc1nc2ccccc2n1CCC(=O)c1ccc(Cl)cc1 [13c],,> 20,
Cc1ccc(S(=O)(=O)n2cnc3ccccc32)cc1 [6c],,> 20,
Cc1ccc(S(=O)(=O)n2c(N)nc3cc(C)c(C)cc32)cc1 [9c],,> 20,
O=C(C1CC1)N1CCc2cc(S(=O)(=O)N3CCN(c4ccc(Cl)cc4)CC3)ccc21 [18a],> 20,,
Nc1nc2ccccc2n1C(=O)Cc1ccccc1 [15c],,> 20,
CC(=O)c1ccc(N2CCN(S(=O)(=O)c3ccc4c(c3)CC(C)N4C(=O)C3CC3)CC2)cc1 (stereo not shown) [7a],> 20,,
Cc1ccc(S(=O)(=O)n2c(N)nc3ccccc32)cc1 [1c],,> 20,"cytotoxicity in NCI 60 screen [1]: noncytotoxic; Inhibitory activity (reported as % control), CFLT3 [2]: 27 % C; plasma protein binding ([3]; 1 μM): 95.0 % bound; plasma protein binding ([3]; 10 μM): 95.5 % bound; microsome stability [4]: 41.8 % remaining; plasma stability [5]: 100/100 % remaining; plasma protein binding ([6]; 1 μM): 97.5 % bound; plasma protein binding ([6]; 10 μM): 97.7 % bound; inhibition of NF-κB activation via doxorubicin-induced pathway [7]: did not inhibit; microsome stability [8]: 0.8 % remaining; activity against 443 kinases (443 kinases): little activity; Inhibitory activity (reported as % control), RIOK2 [9]: 6 % C; inhibition of NF-κB activation via PMA/ionomycin [10]: did not inhibit; solubility at 18 h [11]: 2 µg/mL; plasma stability [12]: 100/100 % remaining"
COc1ccc(C(=O)Cn2c(N)nc3ccccc32)cc1 [14c],,> 20,
O=C(C1CC1)N1CCc2cc(S(=O)(=O)N3CCN(c4ccc([N+](=O)[O-])cc4)CC3)ccc21 [21a],> 20,,
CCC(=O)N1CCc2cc(S(=O)(=O)N3CCN(c4ccc(C(C)=O)cc4)CC3)ccc21 [22a],> 20,,
